{"source": "patent US20240383932A1", "about": "“Phenol Prodrugs” (Lilac Therapeutics, Inc., priority 2023, published 2024)", "key": {"[1]": {"assay": "Solubility in various buffers", "format": "physicochemical", "conditions": "for pH: pH of solubility sample", "description": "The solubility of crystalline compound 15 was measured in the various buffers."}, "[2]": {"assay": "Pharmacokinetics after single dose oral administration in rats", "format": "in vivo, male Sprague Dawley rats", "conditions": "rat; for half-life: po, 50 mg/kg", "description": "The pharmacokinetics of ivacaftor (50 mg/kg in organic and 0.25% Methyl Cellulose in water suspension) in male Sprague Dawley rats after single dose oral administration and compound 15 in 0.25% Methyl Cellulose in water suspension at 108 mg-eq/kg (50 mg/kg equivalent to free base) 324 mg-eq/kg (150 mg/kg equivalent to free base) 540 mg-eq/kg (250 mg/kg equivalent to free base) and 756 mg-eq/kg (350 mg/kg equivalent to free base) were investigated. […] The plasma concentration vs. time profile for these experiments are show in FIG. 3."}, "[3]": {"conditions": "male, Sprague Dawley, plasma, ivacaftor 50 mg/kg, Crystalline Suspension (0.25% Methyl Cellulose in water)"}}, "note": "Like-named read-outs stand apart in the source and are kept apart here."}
{"smiles": "CC(C)OC(=O)[C@H](C)N[P@@](=O)(OCCN1CCOCC1)Oc1cc(NC(=O)c2c[nH]c3ccccc3c2=O)c(C(C)(C)C)cc1C(C)(C)C.O=C(O)CCC(=O)O", "note": "[Compound 15]", "values": [{"measurement": "Observation after 24 hrs", "setting": "[1]; FaSSIF.V2", "value": "Suspension"}, {"measurement": "solubility compared with ivacaftor, in words", "setting": "[1]; FeSSIF and simulated gastric fluid", "value": "significant improvement in solubility"}, {"measurement": "Observation after 24 hrs", "setting": "[1]; FeSSIF.V2", "value": "Clear"}, {"measurement": "Observation after 24 hrs", "setting": "[1]; SGF", "value": "Clear"}, {"measurement": "Observation after 24 hrs", "setting": "[1]; Water", "value": "Slightly Hazy"}, {"measurement": "solubility", "setting": "[1]; aqueous buffer, thermodynamic from solid, pH 6.8 PO4^3− buffer, read-out: Solubility", "value": "< 2", "unit": "µg/mL"}, {"measurement": "Observation after 24 hrs", "setting": "[1]; pH 6.8 PO4^3− buffer", "value": "Suspension"}, {"measurement": "pH", "setting": "[1]; FaSSIF.V2", "value": 6.09}, {"measurement": "pH", "setting": "[1]; FeSSIF.V2", "value": 5.83}, {"measurement": "pH", "setting": "[1]; SGF", "value": 1.96}, {"measurement": "pH", "setting": "[1]; Water", "value": 3.57}, {"measurement": "pH", "setting": "[1]; pH 6.8 PO4^3− buffer", "value": 6.71}, {"measurement": "solubility", "setting": "[1]; simulated gastric fluid, thermodynamic from solid, SGF, read-out: Solubility", "value": 1430, "unit": "µg/mL"}, {"measurement": "solubility", "setting": "[1]; thermodynamic from solid, FaSSIF.V2, read-out: Solubility", "value": 86, "unit": "µg/mL"}, {"measurement": "solubility", "setting": "[1]; thermodynamic from solid, FeSSIF.V2, read-out: Solubility", "value": 1810, "unit": "µg/mL"}, {"measurement": "solubility", "setting": "[1]; water, thermodynamic from solid, read-out: Solubility", "value": 787, "unit": "µg/mL"}, {"measurement": "dose dependence of exposure of ivacaftor, in words", "setting": "[2]; crystalline aqueous suspension, dosed up to 350 mg/kg", "value": "dose proportional increase in the exposure of ivacaftor"}, {"measurement": "reduction in AUC with crystalline aqueous suspension, in words", "setting": "[2]; dosed up to 350 mg/kg", "value": "such reduction was not observed"}]}
{"smiles": "CC(C)(C)c1cc(C(C)(C)C)c(NC(=O)c2c[nH]c3ccccc3c2=O)cc1O", "note": "[ivacaftor, N-(2,4-di-tert-butyl-5-hydroxyphenyl)-4-oxo-1,4-dihydroquinoline-3-carboxamide, reference compound]", "values": [{"measurement": "solubility", "setting": "[1]; FaSSIF.V2, fassif, thermodynamic from solid, read-out: Solubility", "value": 15, "unit": "µg/mL"}, {"measurement": "solubility", "setting": "[1]; FeSSIF.V2, fessif, thermodynamic from solid, read-out: Solubility", "value": 152, "unit": "µg/mL"}, {"measurement": "solubility", "setting": "[1]; FeSSIF.V2, ivacaftor as SDD, read-out: Solubility", "value": 600, "unit": "µg/mL"}, {"measurement": "solubility", "setting": "[1]; SGF, simulated gastric fluid, thermodynamic from solid, read-out: Solubility", "value": 21, "unit": "µg/mL"}, {"measurement": "solubility", "setting": "[1]; Water", "value": 7, "unit": "µg/mL"}, {"measurement": "pH", "setting": "[1]; FaSSIF.V2", "value": 6.35}, {"measurement": "pH", "setting": "[1]; FeSSIF.V2", "value": 5.91}, {"measurement": "pH", "setting": "[1]; SGF", "value": 2.20}, {"measurement": "pH", "setting": "[1]; Water", "value": 7.35}, {"measurement": "pH", "setting": "[1]; pH 6.8 PO4^3− buffer", "value": 6.71}, {"measurement": "solubility", "setting": "[1]; phosphate buffer, aqueous buffer, thermodynamic from solid, pH 6.8 PO4^3− buffer, read-out: Solubility", "value": 8, "unit": "µg/mL"}, {"measurement": "AUC(0-t)", "setting": "[2]; [3]", "value": 14600, "unit": "ng·h/mL"}, {"measurement": "Cmax", "setting": "[2]; [3]", "value": 586, "unit": "ng/mL"}, {"measurement": "half-life", "setting": "[2]; male, Sprague Dawley, plasma, Organic Solution", "value": 10, "unit": "h"}, {"measurement": "half-life", "setting": "[2]; [3]", "value": 20, "unit": "h"}, {"measurement": "reduction in AUC, crystalline suspension vs organic solution formulation", "setting": "[2]; ivacaftor 50 mg/kg", "value": 92, "unit": "%"}]}
